We go through 31 compounds from patent US11312712B2, “Azabenzimidazoles and their use as AMPA receptor modulators” (Janssen Pharmaceutica NV, priority 2015, dated 2022).

Each structure is given as a SMILES string. pIC50: −log10 of the molar value.

Usually pIC50 stands for the IC50 on a negative log10 scale, so that one unit is a factor of ten.

GluA1o-γ8 (GRIA1o-CACNG8 fusion construct), sequence (P42261 other isoform, or with tags, fused parts or gaps): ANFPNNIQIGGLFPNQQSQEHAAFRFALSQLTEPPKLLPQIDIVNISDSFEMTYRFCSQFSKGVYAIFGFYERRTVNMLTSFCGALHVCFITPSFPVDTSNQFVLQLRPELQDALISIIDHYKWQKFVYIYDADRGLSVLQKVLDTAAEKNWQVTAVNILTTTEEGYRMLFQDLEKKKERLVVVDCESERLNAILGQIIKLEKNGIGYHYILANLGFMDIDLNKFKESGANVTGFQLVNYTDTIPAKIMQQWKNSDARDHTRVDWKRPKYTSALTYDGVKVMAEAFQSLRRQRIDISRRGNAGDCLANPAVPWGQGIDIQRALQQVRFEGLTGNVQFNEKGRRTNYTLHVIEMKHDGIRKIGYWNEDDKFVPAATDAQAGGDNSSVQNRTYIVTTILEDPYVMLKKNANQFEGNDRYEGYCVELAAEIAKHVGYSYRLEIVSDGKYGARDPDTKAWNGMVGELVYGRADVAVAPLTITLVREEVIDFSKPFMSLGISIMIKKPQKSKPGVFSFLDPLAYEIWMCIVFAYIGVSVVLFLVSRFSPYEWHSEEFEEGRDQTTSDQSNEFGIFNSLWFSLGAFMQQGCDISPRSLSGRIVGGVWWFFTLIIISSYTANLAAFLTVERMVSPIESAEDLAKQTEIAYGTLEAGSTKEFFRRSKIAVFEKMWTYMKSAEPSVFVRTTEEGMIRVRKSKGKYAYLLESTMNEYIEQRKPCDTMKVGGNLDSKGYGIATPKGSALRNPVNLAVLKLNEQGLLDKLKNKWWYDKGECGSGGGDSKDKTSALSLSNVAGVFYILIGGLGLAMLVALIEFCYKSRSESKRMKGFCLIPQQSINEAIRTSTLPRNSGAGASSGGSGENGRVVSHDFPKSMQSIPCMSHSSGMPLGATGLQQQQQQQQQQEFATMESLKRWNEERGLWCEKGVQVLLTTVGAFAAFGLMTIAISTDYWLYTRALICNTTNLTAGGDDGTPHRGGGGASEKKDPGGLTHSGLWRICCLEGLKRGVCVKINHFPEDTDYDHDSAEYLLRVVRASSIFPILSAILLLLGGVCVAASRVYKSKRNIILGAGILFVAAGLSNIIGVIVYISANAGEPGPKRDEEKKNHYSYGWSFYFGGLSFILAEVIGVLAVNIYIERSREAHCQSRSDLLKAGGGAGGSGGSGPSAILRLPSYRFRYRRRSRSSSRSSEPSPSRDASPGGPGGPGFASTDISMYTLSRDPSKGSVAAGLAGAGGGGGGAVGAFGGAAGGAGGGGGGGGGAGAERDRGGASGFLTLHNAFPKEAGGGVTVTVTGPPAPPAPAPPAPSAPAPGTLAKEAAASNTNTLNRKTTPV

This experiment concerns the target GluA1o-γ8 (GRIA1o-CACNG8 fusion construct) (Homo sapiens (Human), UniProt P42261+Q8WXS5). Briefly: Calcium flux assay (FLIPR), inhibition of TARP γ8 dependent AMPA receptor activity. It counts as cell-based. The settings on record: GluA1o-γ8 (GRIA1o-CACNG8 fusion) in HEK293 cells, calcium flux after 15 μM glutamate. The text has this:
This assay was used to test compounds for their ability to inhibit TARP γ8 dependent AMPA receptor activity. The AMPA receptor is a non-selective cation channel activated by glutamate. Ionotropic glutamate receptors normally desensitize too rapidly to allow detectable calcium influx in a FLIPR assay (Strange et al. (2006). “Functional characterisation of homomeric ionotropic glutamate receptors GluR1-GluR6 in a fluorescence-based high throughput screening assay.” Comb Chem High Throughput Screen 9(2): 147-158). But, this desensitization is incomplete, and a substantial steady-state current remains in the sustained presence of glutamate (Cho et al. (2007). “Two families of TARP isoforms that have distinct effects on the kinetic properties of AMPA receptors and synaptic currents.” Neuron 55(6): 890-904).
An in vitro assay was used to determine the potency of test compounds as inhibitors of the glutamate response of the channel formed by GluA1o-γ8. To ensure a 1:1 stoichiometry of GluA1o and γ8 subunits in the expressed channel, a fusion of the cDNAs for GRIA1o and CACNG8 was used. Following Shi et al (2009) “The stoichiometry of AMPA receptors and TARPs varies by neuronal cell type.” Neuron 62(5): 633-640), the C-terminus of the cDNA for GRIA1o was fused to the N-terminus of the cDNA for γ8. The linker sequence was QQQQQQQQQQEFAT. Channels expressed with this construct appear to have similar properties to channels formed by co-expression of GRIA1o with an excess of CACNG8 (Shi et al. 2009). A clonal cell line in HEK293 cells stably expressing this construct, with a geneticin selection marker, was generated for use in this assay.
Cell expressing the GRIA1o-CACNG8 fusion construct were grown in a monolayer in 96- or 384-well microtiter plates. They were washed with assay buffer (135 mM NaCl, 4 mM KCl, 3 mM CaCl2, 1 mM MgCl2, 5 mM glucose, 10 mM HEPES, pH 7.4, 300 mOs) using a Biotek EL405 plate washer. The cells were then loaded with a calcium-sensitive dye (Calcium-5 or Calcium-6, Molecular Devices) and the test compounds at a range of concentrations. Calcium flux following the addition of 15 μM glutamate was monitored using a Molecular Devices FLIPR Tetra. The fluorescence in each well was normalized to the fluorescence of negative and positive control wells. The negative control wells had no added compounds, and the positive control wells had been incubated with 10 μM CP465022 (a non-subtype-selective AMPA receptor antagonist) (Lazzaro et al. (2002). “Functional characterization of CP-465,022, a selective, noncompetitive AMPA receptor antagonist.” Neuropharmacology 42(2): 143-153). The responses to glutamate as functions of the test compound concentrations were fitted to a four-parameter logistic function. The fitted parameter corresponding to the midpoint was taken to be the potency of inhibition of the compound. The data in Table 4 below illustrates the observed potentcy for the compounds described herein. pIC50 refers to the negative log of the IC50 in molar.
In the case of `COc1ccc2nc(C3CC3)n(-c3ccc4[nH]ncc4c3)c2n1` [Example 157, 2-Cyclopropyl-3-(1H-indazol-5-yl)-5-methoxy-imidazo[4,5-b]pyridine], the pIC50 was 7.90.
Regarding `c1ccc(-c2nc3cccnc3n2-c2ccc3[nH]ccc3c2)cc1` [Example 26, 3-(1H-Indol-5-yl)-2-phenyl-imidazo[4,5-b]pyridine], the pIC50 was 6.30.
Regarding `FC(F)(F)c1ccc2nc(-c3ccco3)n(-c3ccc4[nH]ncc4c3)c2n1` [Example 92, 2-(2-Furyl)-3-(1H-indazol-5-yl)-5-(trifluoromethyl)imidazo[4,5-b]pyridine], the pIC50 was 8.30.
For the compound `Cc1ccc2nc(C(C)(F)F)n(-c3ccc4[nH]ncc4c3)c2n1` [Example 152, 2-(1,1-Difluoroethyl)-3-(1H-indazol-5-yl)-5-methyl-imidazo[4,5-b]pyridine], the pIC50 is 7.40.
With `Cc1ccc2nc(C(C)C)n(-c3ccc4[nH]c(=O)sc4c3)c2n1` [Example 144, 6-(2-Isopropyl-5-methyl-imidazo[4,5-b]pyridin-3-yl)-3H-1,3-benzothiazol-2-one], the pIC50 was 8.80.
Turning to `Cc1ccc2nc(-c3ccnc(F)c3)n(-c3ccc4[nH]c(=O)sc4c3)c2n1` [Example 29, 6-[2-(2-Fluoro-4-pyridyl)-5-methyl-imidazo[4,5-b]pyridin-3-yl]-3H-1,3-benzothiazol-2-one], the pIC50 is 8.60.
Consider `CC[C@H](C)c1nc2ccc(C(F)(F)F)nc2n1-c1cc(C)c2[nH]ncc2c1` (single isomer, unassigned) [Example 407, (*S)-2-(sec-Butyl)-3-(7-methyl-1H-indazol-5-yl)-5-(trifluoromethyl)-3H-imidazo[4,5-b]pyridine], for which the pIC50 was 10.00.
Turning to `Cc1cc(-n2c(C(F)F)nc3ccc(C(F)F)nc32)cc2cn[nH]c12` [Example 212, 2,5-Bis(difluoromethyl)-3-(7-methyl-1H-indazol-5-yl)imidazo[4,5-b]pyridine], the pIC50 was 10.10.
Take `CC(C)c1nc2ccc(C(F)F)nc2n1-c1cc(Cl)c2[nH]ncc2c1` [Example 269, 3-(7-Chloro-1H-indazol-5-yl)-5-(difluoromethyl)-2-isopropyl-imidazo[4,5-b]pyridine]: the pIC50 was 10.50.
Under `O=c1[nH]c2ccc(-n3c(-c4ccccc4)nc4ccc(O)nc43)cc2s1` [Example 111, 6-(5-Hydroxy-2-phenyl-imidazo[4,5-b]pyridin-3-yl)-3H-1,3-benzothiazol-2-one] stands 7.80.
For `Cc1cc(-n2c(C)cc3ccc(C(F)(F)F)nc32)cc2cn[nH]c12` [Example 373, 2-Methyl-1-(7-methyl-1H-indazol-5-yl)-6-(trifluoromethyl)pyrrolo[2,3-b]pyridine], the pIC50 was 10.30.
Take `Cc1ccc2ccn(-c3cc(F)c4c(c3)CC(=O)N4)c2n1` [Example 379, 7-Fluoro-5-(6-methylpyrrolo[2,3-b]pyridin-1-yl)indolin-2-one]: the pIC50 is 7.00.
`CC(C)(C)c1nc2ccc(C(F)(F)F)nc2n1-c1ccc2[nH]c(=O)sc2c1` [Example 19, 6-[2-tert-Butyl-5-(trifluoromethyl)imidazo[4,5-b]pyridin-3-yl]-3H-1,3-benzothiazol-2-one]: the pIC50 was 8.90.
For `O=c1[nH]c2ccc(-n3c(C(F)(F)F)nc4ccc(C(F)F)nc43)cc2s1` [Example 206, 6-[5-(difluoromethyl)-2-(trifluoromethyl)imidazo[4,5-b]pyridin-3-yl]-3H-1,3-benzothiazol-2-one], the pIC50 is 9.50.
Take `FC(F)(F)Cc1nc2ccc(C(F)(F)F)nc2n1-c1ccc2[nH]ncc2c1` [Example 113, 3-(1H-Indazol-5-yl)-2-(2,2,2-trifluoroethyl)-5-(trifluoromethyl)imidazo[4,5-b]pyridine]: the pIC50 was 6.60.
`CC(C)c1nc2ccc(C(F)F)nc2n1-c1ccc2c(c1)CC(=O)N2` [Example 141, 5-[5-(Difluoromethyl)-2-isopropyl-imidazo[4,5-b]pyridin-3-yl]indolin-2-one]: the pIC50 is 8.90.
Under `Cc1cc(-n2c(C(F)(F)F)nc3ccc(C(F)(F)F)nc32)cc2c1NC(=O)C2` [Example 275, 5-[2,5-Bis(trifluoromethyl)imidazo[4,5-b]pyridin-3-yl]-7-methyl-indolin-2-one] stands 9.90; under `CC(F)c1nc2ccc(C(F)(F)F)nc2n1-c1ccc2[nH]ncc2c1` (racemic) [Example 117, (R/S)-2-(1-fluoroethyl)-3-(1H-indazol-5-yl)-5-(trifluoromethyl)imidazo[4,5-b]pyridine], 8.30; under `CC(C)(C)c1nc2ccc(C(F)(F)F)nc2n1-c1ccc2[nH]c(=O)oc2c1` [Example 163, 6-[2-tert-Butyl-5-(trifluoromethyl)imidazo[4,5-b]pyridin-3-yl]-3H-1,3-benzoxazol-2-one], 6.80.
For `O=c1[nH]c2ccc(-n3c(-c4ccc(C(F)F)cc4)nc4cccnc43)cc2s1` [Example 68, 6-[2-[4-(Difluoromethyl)phenyl]imidazo[4,5-b]pyridin-3-yl]-3H-1,3-benzothiazol-2-one], the pIC50 was 7.60.
For `O=C1Cc2cc(-n3c(C4CCOC4)cc4ccc(C(F)(F)F)nc43)cc(F)c2N1` (racemic) [Example 365, (RS)-7-Fluoro-5-[2-tetrahydrofuran-3-yl-6-(trifluoromethyl)pyrrolo[2,3-b]pyridin-1-yl]indolin-2-one] the value was 9.70; for `OC1(c2nc3ccc(C(F)(F)F)nc3n2-c2ccc3[nH]ncc3c2)CC1` [Example 115, 1-[3-(1H-Indazol-5-yl)-5-(trifluoromethyl)imidazo[4,5-b]pyridin-2-yl]cyclopropanol], 6.70.
Turning to `COc1nc2ccc(C(F)(F)F)nc2n1-c1ccc2c(c1)CC(=O)N2` [Example 244, 5-[2-Methoxy-5-(trifluoromethyl)imidazo[4,5-b]pyridin-3-yl]indolin-2-one], the pIC50 is 7.40.
As to `CC(C)c1c(Br)c2ccc(C(F)(F)F)nc2n1-c1cnc2c(c1)CC(=O)N2` [Example 394, 5-[3-Bromo-2-isopropyl-6-(trifluoromethyl)pyrrolo[2,3-b]pyridin-1-yl]-1,3-dihydropyrrolo[2,3-b]pyridin-2-one], the pIC50 was 7.50.
As for `CCNc1nc2ccc(C(F)(F)F)nc2n1-c1ccc2[nH]ncc2c1` [Example 130, N-Ethyl-3-(1H-indazol-5-yl)-5-(trifluoromethyl)imidazo[4,5-b]pyridin-2-amine], the pIC50 was 7.00.
In the case of `Fc1ccc(-c2nc3ccc(C(F)F)nc3n2-c2ccc3[nH]ncc3c2)cc1` [Example 322, 5-(Difluoromethyl)-2-(4-fluorophenyl)-3-(1H-indazol-5-yl)imidazo[4,5-b]pyridine], the pIC50 was 10.20.
`Cc1ccnc2c1nc(C1CC1)n2-c1ccc2[nH]c(=O)sc2c1` [Example 135, 6-(2-Cyclopropyl-7-methyl-imidazo[4,5-b]pyridin-3-yl)-3H-1,3-benzothiazol-2-one]: the pIC50 was 7.10.
Under `O=c1[nH]c2c(Cl)cc(-n3c(C(F)(F)F)nc4ccc(C(F)(F)F)nc43)cc2s1` [Example 282, 6-[2,5-Bis(trifluoromethyl)imidazo[4,5-b]pyridin-3-yl]-4-chloro-3H-1,3-benzothiazol-2-one] stands 10.50; under `CCOc1nc2ccc(C(F)(F)F)nc2n1-c1ccc2[nH]ncc2c1` [Example 114, 2-Ethoxy-3-(1H-indazol-5-yl)-5-(trifluoromethyl)imidazo[4,5-b]pyridine], 7.90; under `Cc1ccc2nc(C(C)(F)F)n(-c3ccc4[nH]c(=O)sc4c3)c2n1` [Example 150, 6-[2-(1,1-Difluoroethyl)-5-methyl-imidazo[4,5-b]pyridin-3-yl]-3H-1,3-benzothiazol-2-one], 8.80.
For `O=c1[nH]c2ccc(-n3c(-c4ccc(F)cc4)nc4cccnc43)cc2o1` [Example 24, 6-[2-(4-Fluorophenyl)imidazo[4,5-b]pyridin-3-yl]-3H-1,3-benzoxazol-2-one] the value was 6.50.
